Source: ChEMBL document CHEMBL1909046, “DrugMatrix in vitro pharmacology data”
Where a SMILES comes first, the peptide text is derived from it. Bridges are numbered along the chain shown (N, C = ends). [ ]: non-standard residue; d: D form. The star is where a group is joined. Ileψ(thiazoline)Cys = CC[C@H](C)[C@H](N)C1=N[C@H](C(=O)*)CS1; dOrn = NCCC[C@@H](N)C(=O)O

Key:
[1] = biological target: Beta-2 adrenergic receptor (Homo sapiens, UniProt P07550); assay: DRUGMATRIX: Adrenergic beta2 radioligand binding (ligand: [3H] CGP-12177); assay type: cell membranes, Membrane; settings: cho; Not Active = under 50% inhibition at 10 µM
Chain of Beta-2 adrenergic receptor (P07550 whole entry): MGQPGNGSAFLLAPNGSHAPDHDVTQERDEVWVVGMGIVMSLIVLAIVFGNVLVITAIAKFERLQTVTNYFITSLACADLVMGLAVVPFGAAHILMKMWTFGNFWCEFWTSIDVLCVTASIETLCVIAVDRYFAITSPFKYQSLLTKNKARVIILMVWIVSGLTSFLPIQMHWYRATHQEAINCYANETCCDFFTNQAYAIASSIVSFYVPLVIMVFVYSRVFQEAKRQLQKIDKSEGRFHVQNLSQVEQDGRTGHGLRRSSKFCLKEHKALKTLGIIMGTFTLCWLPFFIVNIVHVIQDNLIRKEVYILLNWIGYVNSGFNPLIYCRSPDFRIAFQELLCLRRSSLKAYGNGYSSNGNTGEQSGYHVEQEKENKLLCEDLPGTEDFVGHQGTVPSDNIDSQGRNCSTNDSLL

Substance-K receptor = biological target: T1, Substance-K receptor (Homo sapiens, UniProt P21452); assay type: cell membranes, CHO, Membrane; also: in other assays of this panel Not Active means under 50% inhibition at 10 µM
T1 sequence (P21452 whole entry): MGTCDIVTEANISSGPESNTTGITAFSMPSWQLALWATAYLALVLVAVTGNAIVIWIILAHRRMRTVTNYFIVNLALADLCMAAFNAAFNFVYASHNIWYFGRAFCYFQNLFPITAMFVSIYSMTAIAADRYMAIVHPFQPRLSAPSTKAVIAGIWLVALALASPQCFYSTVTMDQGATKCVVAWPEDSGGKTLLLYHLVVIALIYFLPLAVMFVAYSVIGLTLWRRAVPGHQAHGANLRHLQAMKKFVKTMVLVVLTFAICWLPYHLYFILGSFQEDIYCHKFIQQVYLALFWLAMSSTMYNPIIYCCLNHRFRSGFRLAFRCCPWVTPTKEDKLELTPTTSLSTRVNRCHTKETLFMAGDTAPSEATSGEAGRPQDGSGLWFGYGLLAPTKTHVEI

Cytochrome P450 1A2 = biological target: T2, Cytochrome P450 1A2 (Homo sapiens, UniProt P05177); settings: bti-tn-5b1-4; also: in other assays of this panel Not Active means under 50% inhibition at 10 µM
T2 sequence (P05177 whole entry): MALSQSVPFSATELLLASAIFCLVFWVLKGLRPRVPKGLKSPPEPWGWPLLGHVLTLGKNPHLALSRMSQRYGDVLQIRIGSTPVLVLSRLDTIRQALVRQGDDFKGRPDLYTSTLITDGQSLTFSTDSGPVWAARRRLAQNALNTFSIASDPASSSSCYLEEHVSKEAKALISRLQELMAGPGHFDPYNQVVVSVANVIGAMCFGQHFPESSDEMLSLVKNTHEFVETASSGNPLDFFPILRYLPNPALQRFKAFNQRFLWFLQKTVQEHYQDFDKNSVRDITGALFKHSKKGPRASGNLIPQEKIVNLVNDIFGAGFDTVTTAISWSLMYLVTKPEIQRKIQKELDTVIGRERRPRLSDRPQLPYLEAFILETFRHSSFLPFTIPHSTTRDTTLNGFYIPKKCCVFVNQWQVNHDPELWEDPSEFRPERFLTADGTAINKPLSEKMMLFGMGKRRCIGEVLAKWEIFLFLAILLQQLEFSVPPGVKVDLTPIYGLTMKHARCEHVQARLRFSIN

Interstitial collagenase = biological target: T3, Interstitial collagenase (Homo sapiens, UniProt P03956); assay type: tissue-based, Rheumatoid synovial fibroblasts;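 also: MMP-1 enzyme inhibition assay using a peptide substrate; in other assays of this panel Not Active means under 50% inhibition at 10 µM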
T3 sequence (P03956 whole entry): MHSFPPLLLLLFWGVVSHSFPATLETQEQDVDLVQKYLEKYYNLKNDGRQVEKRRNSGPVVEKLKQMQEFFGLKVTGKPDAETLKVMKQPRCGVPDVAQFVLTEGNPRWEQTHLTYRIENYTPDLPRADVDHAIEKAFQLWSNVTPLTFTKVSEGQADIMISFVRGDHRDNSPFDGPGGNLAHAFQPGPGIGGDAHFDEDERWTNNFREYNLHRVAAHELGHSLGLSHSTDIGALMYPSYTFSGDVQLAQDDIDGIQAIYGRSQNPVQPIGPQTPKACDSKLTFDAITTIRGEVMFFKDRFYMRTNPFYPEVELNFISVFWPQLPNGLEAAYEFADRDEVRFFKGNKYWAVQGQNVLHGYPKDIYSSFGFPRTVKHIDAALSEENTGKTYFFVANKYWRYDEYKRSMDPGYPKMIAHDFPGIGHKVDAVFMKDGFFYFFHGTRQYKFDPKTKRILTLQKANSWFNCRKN

[2] = biological target: T4, 5-hydroxytryptamine receptor 2C (Homo sapiens, UniProt P28335); assay: DRUGMATRIX: Serotonin (5-Hydroxytryptamine) 5-HT2C radioligand binding (ligand: [3H] Mesulergine); assay type: cell membranes, CHO-K1, Membrane; settings: Not Active = under 50% inhibition at 10 µM; for Ki: read-out: Ki
T4 sequence (P28335 whole entry): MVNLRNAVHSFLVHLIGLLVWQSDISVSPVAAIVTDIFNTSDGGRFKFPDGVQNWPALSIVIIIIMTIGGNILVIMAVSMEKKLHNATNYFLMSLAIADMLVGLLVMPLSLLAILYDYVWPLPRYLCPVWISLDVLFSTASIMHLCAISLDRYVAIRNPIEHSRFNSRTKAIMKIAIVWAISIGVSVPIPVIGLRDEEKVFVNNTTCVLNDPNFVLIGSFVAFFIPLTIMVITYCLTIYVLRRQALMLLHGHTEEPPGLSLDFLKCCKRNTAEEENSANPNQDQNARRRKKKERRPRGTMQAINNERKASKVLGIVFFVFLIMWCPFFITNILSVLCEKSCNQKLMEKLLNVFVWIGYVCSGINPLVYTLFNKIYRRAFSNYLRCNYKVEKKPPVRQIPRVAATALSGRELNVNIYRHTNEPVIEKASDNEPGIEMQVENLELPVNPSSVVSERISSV

Melanocortin receptor 5 = Melanocortin receptor 5 (Homo sapiens, UniProt P33032); assay type: cell membranes, HEK293, Membrane; settings: hek293; also: in other assays of this panel Not Active means under 50% inhibition at 10 µM
Chain of Melanocortin receptor 5 (P33032 whole entry): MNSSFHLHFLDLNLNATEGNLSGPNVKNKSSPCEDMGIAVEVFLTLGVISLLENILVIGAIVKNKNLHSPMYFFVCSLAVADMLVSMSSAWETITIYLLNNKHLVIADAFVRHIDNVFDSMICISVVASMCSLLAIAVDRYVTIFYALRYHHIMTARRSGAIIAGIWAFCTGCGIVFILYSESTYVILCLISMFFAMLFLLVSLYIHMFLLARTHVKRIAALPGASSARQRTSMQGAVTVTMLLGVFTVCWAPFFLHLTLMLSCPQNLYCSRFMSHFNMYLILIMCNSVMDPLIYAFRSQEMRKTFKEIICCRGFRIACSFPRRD

| SMILES | IC50 [1] | IC50 (Substance-K receptor; cho) | IC50 (Cytochrome P450 1A2) | Ki (Cytochrome P450 1A2) | IC50 (Interstitial collagenase) | IC50 ([2]; cho-k1) | IC50 (Melanocortin receptor 5) | IC50 (Substance-K receptor; read-out: IC50) [µM] | Ki (Substance-K receptor; read-out: Ki) [µM] | IC50 ([2]; read-out: IC50) [µM] | Ki [2] [µM] |
| --- | --- | --- | --- | --- | --- | --- | --- | --- | --- | --- | --- |
| N=C(N)NCCCCNC(=N)N.O=S(=O)(O)O [ARCAINE SULFATE] | Not Active | Not Active | Not Active | Not Active | Not Active | Not Active | Not Active |  |  |  |  |
| C=C1[C@@H]2CCC3[C@@](CC[C@@H]4[C@H](C(=O)O)C[C@@H](O[C@@H]5O[C@H](CO)[C@@H](OS(=O)(=O)[O-])[C@H](OS(=O)(=O)[O-])[C@H]5OC(=O)CC(C)C)C[C@@]34C)(C2)[C@@H]1O.[K+].[K+] (stereo partly specified) [ATRACTYLOSIDE] | Not Active | Not Active | Not Active | Not Active | Not Active | Not Active | Not Active |  |  |  |  |
| Cn1cnc([N+](=O)[O-])c1Sc1ncnc2nc[nH]c12 [AZATHIOPRINE] | Not Active | Not Active | Not Active | Not Active | Not Active | Not Active | Not Active |  |  |  |  |
| CC1(C)S[C@@H]2[C@H](NC(=O)[C@H](NC(=O)N3CCNC3=O)c3ccccc3)C(=O)N2[C@H]1C(=O)O [AZLOCILLIN] | Not Active | Not Active | Not Active | Not Active | Not Active | Not Active | Not Active |  |  |  |  |
| CC[C@H](C)[C@H](N)C1=N[C@H](C(=O)N[C@@H](CC(C)C)C(=O)N[C@H](CCC(=O)O)C(=O)N[C@H](C(=O)N[C@H]2CCCCNC(=O)[C@H](CC(N)=O)NC(=O)[C@@H](CC(=O)O)NC(=O)[C@H](Cc3cnc[nH]3)NC(=O)[C@@H](Cc3ccccc3)NC(=O)[C@H]([C@@H](C)CC)NC(=O)[C@@H](CCCN)NC2=O)[C@@H](C)CC)CS1 [BACITRACIN] ({Ileψ(thiazoline)Cys}-L[dE]IK[dOrn]I[dF]H[dD]N; lactam 4-C) | Not Active | Not Active | Not Active | Not Active | Not Active | Not Active | Not Active |  |  |  |  |
| CCOC(=O)c1ccc(N)cc1 [BENZOCAINE] | Not Active | Not Active | Not Active | Not Active | Not Active | Not Active | Not Active |  |  |  |  |
| OCc1ccccc1 [BENZYL ALCOHOL] | Not Active | Not Active | Not Active | Not Active | Not Active | Not Active | Not Active |  |  |  |  |
| CC(C)(Oc1ccc(CCNC(=O)c2ccc(Cl)cc2)cc1)C(=O)O [BEZAFIBRATE] | Not Active | Not Active | Not Active | Not Active | Not Active | Not Active | Not Active |  |  |  |  |
| CCCC[C@@H](CC)COC(=O)c1ccccc1C(=O)OC[C@@H](CC)CCCC [BIS(2-ETHYLHEXYL)PHTHALATE] | Not Active | Not Active | Not Active | Not Active | Not Active | Not Active | Not Active |  |  |  |  |
| Oc1c(Cl)cc(Cl)cc1Sc1cc(Cl)cc(Cl)c1O [BITHIONOL] | Not Active |  | Not Active | Not Active | Not Active |  | Not Active | 4.66 | 1.55 | 8.78 | 4.6 |
| Brc1ccccc1 [BROMOBENZENE] | Not Active | Not Active | Not Active | Not Active | Not Active | Not Active | Not Active |  |  |  |  |
| CC[C@@]1(O)C(=O)OCc2c1cc1n(c2=O)Cc2cc3ccccc3nc2-1 [CAMPTOTHECIN] | Not Active | Not Active | Not Active | Not Active | Not Active | Not Active | Not Active |  |  |  |  |
| COCc1c(C(C)C)nc(C(C)C)c(/C=C/[C@@H](O)C[C@@H](O)CC(=O)O)c1-c1ccc(F)cc1 [CERIVASTATIN] | Not Active | Not Active | Not Active | Not Active | Not Active | Not Active | Not Active |  |  |  |  |
| CC(=O)O[C@]1(C(C)=O)CC[C@H]2[C@@H]3C=C(Cl)C4=CC(=O)CC[C@]4(C)[C@H]3CC[C@@]21C [CHLORMADINONE ACETATE] | Not Active | Not Active | Not Active | Not Active | Not Active | Not Active | Not Active |  |  |  |  |
| O=C1CCc2cc(OCCCCc3nnnn3C3CCCCC3)ccc2N1 [CILOSTAZOL] | Not Active | Not Active | Not Active | Not Active | Not Active | Not Active | Not Active |  |  |  |  |
| COC(=O)[C@H](c1ccccc1Cl)N1CCc2sccc2C1 [CLOPIDOGREL] | Not Active | Not Active | Not Active | Not Active | Not Active | Not Active | Not Active |  |  |  |  |
| C[C@]12CCC(=O)C=C1CC[C@@H]1[C@@H]2C(=O)C[C@@]2(C)[C@H]1CC[C@]2(O)C(=O)CO [CORTISONE] | Not Active | Not Active | Not Active | Not Active | Not Active | Not Active | Not Active |  |  |  |  |
| Cc1ccccc1N1CCN(CCc2nnc3n2CCCC3)CC1 [DAPIPRAZOLE] | Not Active | Not Active | Not Active | Not Active | Not Active |  | Not Active |  |  | 0.625 | 0.327 |
| CC1=Nc2ccc(Cl)cc2S(=O)(=O)N1 [DIAZOXIDE] | Not Active | Not Active | Not Active | Not Active | Not Active | Not Active | Not Active |  |  |  |  |
